In patent US12186318B2, “Pharmaceutical composition for preventing or treating cancer comprising KSP inhibitor and mitosis inhibitor” (KOREA INSTITUTE OF SCIENCE AND TECHNOLOGY, priority 2020, dated 2025):

How the values were obtained:
[1] = system: HeyA8-MDR cells; assay: Anti-cancer activity, MTT cell viability and Bliss independence; assay type: cell-based; details: single agent, 0 to 200 nM liposome or 0 to 2000 nM paclitaxel, 48 hours
Experimental: The recovered cells were cultured in a fresh medium supplemented with a 10% MTT solution for 3 hours and formazan crystals generated by treatment with a Sorensen's glycine buffer and DMSO was dissolved therein. Thereafter, the absorbance thereof was measured at 570 nm and the cell viability was calculated using the same (FIG. 2G).
The cell viabilities of the cells were compared (FIG. 2H).
In addition, in order to quantitatively analyze a reduction level of the cell viability, the measured absorbance was applied to the following equation to calculate an expected inhibition level of cancer cells, and the obtained expected inhibition level was compared with an observed inhibition level of the cancer cells (FIGS. 2I to 2K). […] Expected inhibition level=FsiKSP-liposome+FPTX−(FsiKSP-liposome×FPTX)
Thereafter, cell viability inhibition levels and expected inhibition levels calculated therefrom were compared with each other (FIG. 2L). […] Expected Inhibition Level=Fa+Fb−(Fa×Fb)

[2] = system: Kif15 gene; assay: Kif15 expression at the gene level (qRT-PCR) in HeyA8-MDR cells; assay type: cell-based; details: 50 nM siKSP and/or 2000 nM PTX, 48 hours
Experimental: Subsequently, total RNA was obtained respectively from the recovered cells using an RNeasy mini kit (Qiagen, US), cDNA was synthesized from the obtained total RNA using a TOPscript cDNA synthesis kit (Enzynomics, Korea), and PCR was performed using a StepOne qRT-PCR system (Thermo Fisher scientific) and primers specific to a Kif15 gene (SEQ ID NOS: 7 and 8) or primers specific to a β-actin gene (SEQ ID NOS: 5 and 6).
Thereafter, the levels of the amplified products obtained from the PCR were measured, and the measured levels were standardized with respect to an expression amount of β-actin, and then relative levels of Kif15 mRNA was calculated (FIG. 2C).

[3] = system: HeyA8-MDR cancer cells; assay: Anti-cancer effect in tumor mouse model; assay type: in vivo, BALB/c nude mouse; details: 26 days after injection
Experimental: First, HeyA8-MDR cancer cells (1×10^8) were injected into the left thigh of a 5-week-old female BALB/c nude mouse, and then left until cancer tissue grew to a volume of about 50 mm3 to prepare 20 tumor mouse xenograft models.
Subsequently, at 26 days after injection of each of the samples, tumor tissue was excised from each tumor mouse model and weighed (FIG. 4B).
In addition, at 26 days after injection of each of the samples, tumor tissue was excised from each tumor mouse model, and tumor growth inhibition (TGI) rate was measured (FIG. 4C).

[4] = system: HeyA8-MDR cancer cells; assay: TUNEL assay on tumor tissue of tumor mouse model; assay type: in vivo, BALB/c nude mouse
Description: The tumor tissue of the respective groups excised in Example 4-2 above was subjected to a TUNEL assay to identify the level of apoptosis in the tumor tissue (FIG. 4I).

[5] = system: drug-resistant PDX model; assay: TUNEL assay on tumor-implanted kidney tissue of drug-resistant PDX model; assay type: in vivo, mouse
Description: The tumor-implanted kidney tissue of the respective groups excised in Example 4-4-2 above was subjected to a TUNEL assay to identify the level of apoptosis in the tumor-implanted kidney tissue (FIG. 5H).

[6] = system: Kif15 mRNA; assay: Kif15 mRNA level in drug-resistant PDX model; assay type: in vivo, mouse; details: relative to control
Experimental: The levels of Kif15 mRNA expressed in tumor tissue of the respective groups excised in Example 4-4-2 above were measured by qRT-PCR as an application method of that of Example 3-3 (FIG. 5E).

[7] = system: Kif15 protein; assay: Kif15 expression at the protein level (western blot) in HeyA8-MDR cells; assay type: cell-based; details: 50 nM siKSP and/or 2000 nM PTX, 48 hours
Experimental: The cells recovered in Example 3-3 above were analyzed by western blotting using an anti-Kif15 antibody (FIG. 2D).

CC(=O)O[C@H]1C(=O)[C@@]2(C)[C@H]([C@H](OC(=O)c3ccccc3)[C@]3(O)C[C@H](OC(=O)[C@H](O)[C@@H](NC(=O)c4ccccc4)c4ccccc4)C(C)=C1C3(C)C)[C@]1(OC(C)=O)CO[C@@H]1C[C@@H]2O [paclitaxel]
cell viability with increasing concentration [1]: decreases
expression level of the Kif15 gene [2]: inhibited
tumor growth inhibition (TGI) rate [3]: about 13.1%
apoptosis in tumor tissue (TUNEL) [4]: not induced or induced in a low level
apoptosis in tumor-implanted kidney tissue (TUNEL) [5]: not induced or induced in a low level
Kif15 mRNA level in tumor-implanted kidney tissue [6]: decreased
level of the Kif15 protein [7]: decreased
